Counter-ions that a name gives are not always drawn.

We go through 23 compounds from US6608086B2, “Dihydropyridines and new uses thereof” (Synaptic Pharmaceutical Corporation, priority 1993, dated 2003).

Take `COC(=O)C1=C(C)NC(C)=C(C(=O)NCCCN2CCc3cc(OC)c(OC)cc3C2)C1c1ccc([N+](=O)[O-])cc1` (centres unmarked) (as salt: hydrochloride) (hydrate or solvate) [Example 57, 1,4-Dihydro-3-methoxycarbonyl-5-{N-[3-(1,2,3,4-tetrahydro-6,7-dimethoxyisoquinolin-2-yl)propyl]}carboxamido-2,6-dimethyl-4-(4-nitrophenyl)pyridine hydrochloride hydrate]: the melting point (commonly the temperature of the solid-liquid transition) is 161 to 162 °C.

In the case of `CCC1=C(C(=O)NCCCN2CCC(c3ccccc3)(c3ccccc3)CC2)C(c2ccc([N+](=O)[O-])cc2)C(C(=O)NC)=C(COCCN=[N+]=[N-])N1` (centres unmarked) (as salt: hydrochloride) [Example 151, 2-((2-Azidoethyl)oxy)methyl-6-ethyl-1,4-dihydro-3-(N-methyl)carboxamido-4-(4-nitro)phenyl-5-(N-(3-(4,4-diphenylpiperidin-1-yl)propyl))carboxamidopyridine], the melting point is 200 °C (dec.).

For the compound `COC(=O)C1=C(C)N(C)C(C)=C(C(=O)OCCCN2CCC(c3ccccc3)(c3ccccc3)CC2)C1c1ccc([N+](=O)[O-])cc1.Cl.O` (centres unmarked) (hydrate or solvate) [Example 92, 1,4-Dihydro-5-methoxycarbonyl-1,2,6-trimethyl-4-(4-nitrophenyl)-3-[3-(4,4-diphenylpiperidin-1-yl)propoxy]carbonylpyridine hydrochloride hydrate], the melting point fell in the range of 127 to 128 °C.

For `CCC1=C(C(N)=O)C(c2ccc([N+](=O)[O-])cc2)C(C(=O)NCCCN2CCC(C#N)(c3ccccc3)CC2)=C(CC)N1` (racemic) (as salt: hydrochloride) (hydrate or solvate) [(±)-102, 5-Carboxamido-3-{N-[(4-cyano-4-phenylpiperidin-1-ly)propyl]carboxamido-2,6-diethyl-1,4-dihydro-4-(4-nitrophenyl)pyridine hydrochloride hydrate], the melting point is 230 °C (dec.).

As to `CCC1=C(C(=O)OCCC#N)C(c2ccc([N+](=O)[O-])cc2)C(C(=O)NCCCN2CCC(c3ccccc3)(c3ccccc3)CC2)=C(COC)N1` (centres unmarked) (hydrate or solvate) [Example 135], the melting point is 120 to 125 °C.

As for `COC(=O)C1=C(C)NC(C)=C(C(=O)OCCCN2CCCCC2)C1c1ccc([N+](=O)[O-])cc1` (centres unmarked) (as salt: hydrochloride) (hydrate or solvate) [Example 50, 1,4-Dihydro-5-methoxycarbonyl-2,6-dimethyl-4-(4-nitrophenyl)-3-[3-(piperidin-1-yl)propoxy]carbonylpyridine hydrochloride etherate], the melting point lay within 128 to 129 °C.

On to `COC(=O)C1=C(C)NC(C)=C(C(=O)NCCCN2CCc3ccccc3C2)C1c1ccc([N+](=O)[O-])cc1` (centres unmarked) (as salt: hydrochloride) (hydrate or solvate) [Example 59, 1,4-Dihydro-5-{N-[3-(1,2,3,4-tetrahydroisoquinolin-2-yl)propyl]}carboxamido-3-methoxycarbonyl-2,6-dimethyl-4-(4-nitrophenyl)pyridine hydrochloride hydrate], for which the melting point was 145 to 146 °C.

For `CCC1=C(C(=O)NC2CCN(Cc3ccccc3)CC2)C(c2ccc([N+](=O)[O-])cc2)C(C(=O)OC)=C(C)N1` (centres unmarked) (as salt: hydrochloride) [Example 75, 2-Ethyl-1,4-dihydro-5-methoxycarbonyl-6-methyl-4-(4-nitro)phenyl-3-(N-(N-phenylmethyl)piperidin-4-yl)carboxamidopyridine hydrochloride], the melting point was 221 to 224 °C (dec.).

For the compound `CCC1=C(C(N)=O)C(c2ccc([N+](=O)[O-])cc2)C(C(=O)NCCCN2CCN(c3ccccc3)CC2)=C(CC)N1` (centres unmarked) (as salt: hydrochloride) (hydrate or solvate) [Example 104, 5-Carboxamido-2,6-diethyl-1,4-dihydro-4-(4-nitrophenyl)-3-{N-[3-(4-phenylpiperazin-1-yl)propyl]}carboxamido-pyridine hydrochloride hydrate], the melting point is 160 °C (dec.).

On to `CCC1=C(C(=O)NCCCN2CCC(c3ccccc3)(c3ccccc3)CC2)C(c2ccc([N+](=O)[O-])cc2)C(C(=O)OCc2ccccc2)=C(C)N1` (centres unmarked) (as salt: hydrochloride) (hydrate or solvate) [Example 4, 5-Benzyloxycarbonyl-2-ethyl-1,4-dihydro-6-methyl-4-(4-nitrophenyl)-3-(N-(3-(4,4-diphenylpiperidin-1-yl)propyl)carboxamido) pyridine, Hydrochloride Salt, Hydrate], for which the melting point was 195 to 198 °C (dec.).

Consider `COC(=O)C1=C(C)NC(C)=C(C(=O)N(C)CCCN2CCC(c3ccccc3)(c3ccccc3)CC2)C1c1ccc([N+](=O)[O-])cc1` (centres unmarked) (as salt: hydrochloride) (hydrate or solvate) [Example 46, hydrochloride hemihydrate], for which the melting point was 179 to 180 °C.

Compound `COC(=O)C1=C(C)NC(C)=C(C(=O)NCCCN2CCC(c3ccccc3)CC2)C1c1ccc([N+](=O)[O-])cc1` (racemic) (as salt: hydrochloride) (hydrate or solvate) [(±)-45, (±)-1,4-Dihydro-3-methoxycarbonyl-2,6-dimethyl-4-(4-nitrophenyl)-5-{N-[3-(4-phenylpiperidin-1-yl)propyl]}carboxamidopyridine hydrochloride hemihydrate] showed a melting point of 160 °C.

Compound `CCC1=C(C(N)=O)C(c2ccc([N+](=O)[O-])cc2)C(C(=O)NCCCN2CCC(c3ccccc3)(c3ccccc3)CC2)=C(COCCN=[N+]=[N-])N1` (centres unmarked) had a melting point of 88 to 93 °C.

Regarding `COc1ccc(C2(c3ccccc3)CCN(CCCNC(=O)C3=C(C)NC(C)=C(C(N)=O)C3c3ccc([N+](=O)[O-])cc3)CC2)cc1` (centres unmarked) (as salt: hydrochloride) [Example 98, 5-Carboxamido-1,4-dihydro-3-{N-[3-(4-(4-methoxyphenyl)-4-phenylpiperidin-1-yl)propyl]}carboxamido-2,6-dimethyl-4-(4-nitrophenyl)pyridine hydrochloride], the melting point is 185 °C (dec.).

As for `CCC1=C(C(N)=O)C(c2ccc([N+](=O)[O-])cc2)C(C(=O)NCCCN2CCC(c3ccc(OC)cc3)(c3ccc(OC)cc3)CC2)=C(CC)N1` (centres unmarked) (as salt: hydrochloride) [Example 103, 5-Carboxamido-2,6-diethyl-1,4-dihydro-3-{N-[3-(4,4-bis-(4-methoxyphenyl)piperidin-1-yl)propyl]}carboxamido}-4-(4-nitrophenyl)pyridine hydrochloride], the melting point was 175 °C (dec.).

The compound `COC(=O)C1=C(C)NC(C)=C(C(=O)NCCCCN2CCC(c3ccccc3)CC2)C1c1ccc([N+](=O)[O-])cc1` (centres unmarked) (as salt: hydrochloride) (hydrate or solvate) [Example 3, 1,4-Dihydro-3-methoxycarbonyl-2,6-dimethyl-4-(4-nitrophenyl)-5-{N-[4-(4-phenylpiperidin-1-yl)butyl]}carbozamidopyridine hydrochloride hydrate] returned a melting point of 136 to 137 °C.

On to `CCC1=C(C(N)=O)C(c2ccc([N+](=O)[O-])cc2)C(C(=O)NCCCN2CCC(C)(c3ccccc3)CC2)=C(CC)N1` (centres unmarked) (as salt: hydrochloride) (hydrate or solvate) [Example 106, 5-Carboxamido-2,6-diethyl-1,4-dihydro-3-{N-[3-(4-Methyl-4-phenylpiperidin-1-yl)propyl]}carboxamido-4-(4-nitrophenyl)pyridine hydrochloride hydrate], for which the melting point was 166 °C (dec.).

As to `CCC1=C(C(=O)NCCCN2CCC(c3ccccc3)(c3ccccc3)CC2)C(c2ccc(N)cc2)C(C(=O)OC)=C(C)N1` (centres unmarked) (as salt: salt) [Example 114, 4-(4-Aminophenyl)-2-ethyl-1,4-dihydro-5-methoxycarbonyl-6-methyl-3-(N-(3-(4,4-diphenylpiperidin-1-yl)propyl)carboxamido)-pyridine], the melting point is 169 to 172 °C (dec.).

For `CCC1=C(C(N)=O)C(c2ccc([N+](=O)[O-])cc2)C(C(=O)NCCCN2CCC(O)(c3ccccc3)CC2)=C(CC)N1` (centres unmarked) (as salt: hydrochloride) (hydrate or solvate) [Example 100, 5-Carboxamido-2,6-diethyl-1,4-dihydro-3-{N-(3-(4-hydroxy-4-phenylpiperidin-1-yl)propyl]}carboxamido-4-(4-nitrophenyl)pyridine hydrochloride hydrate], the melting point is 165 °C (dec.).

Turning to `CCOC(=O)C1(c2ccccc2)CCN(CCCNC(=O)C2=C(C)NC(C)=C(C(=O)NC)C2c2ccc([N+](=O)[O-])cc2)CC1` (centres unmarked) [Example 188, 1,4-Dihydro-2,6-dimethyl-3-{N-[3-(4-ethoxycarbonyl-4-phenyl-piperidin-1-yl)propyl]}carboxamide-5-(N-methyl)carboxam ido-4-(4nitrophenyl)pyridine], the melting point was 112 to 113 °C.

As to `COC(=O)C1=C(C)NC(c2ccoc2)=C(C(=O)NCCCN2CCC(c3ccccc3)CC2)C1c1ccc([N+](=O)[O-])cc1` (centres unmarked) (as salt: hydrochloride) (hydrate or solvate) [Example 65, 2-(Furan-3-yl)-1,4-dihydro-5-methoxycarbonyl-6-methyl-4-(4-nitrophenyl)-5-{N-[3-(4-phenylpiperidin-1-yl)propyl]}carboxamidopyridine hydrochloride hydrate], the melting point was 205 to 210 °C (dec.).

With `CC(=O)C1=C(C)NC(C)=C(C(=O)NCCCN2CCC(c3ccccc3)(c3ccccc3)CC2)C1c1ccc([N+](=O)[O-])cc1` (centres unmarked) (as salt: hydrochloride) (hydrate or solvate) [Example 47, 5-Acetyl-1,4-dihydro-2,6-dimethyl-4-(4-nitrophenyl)-3-{N-[3-(4,4-diphenylpiperidin-1-yl)propyl]}carboxamidopyridine], the melting point fell in the range of 173 to 174 °C.

Turning to `CCNC(=O)C1=C(C)NC(C)=C(C(=O)NCCCN2CCC(C(=O)OC)(c3ccccc3)CC2)C1c1ccc([N+](=O)[O-])cc1` (centres unmarked) [Example 205, 1,4-Dihydro-2,6-dimethyl-5-(N-ethyl)carboxamido-3-{N-[3-(4-methoxycarbonyl-4-phenylpiperidin-1-yl)propyl]}carboxamido-4-(4-nitrophenyl)pyridine], the melting point was 117 to 118 °C.
